What was measured:
HT-29 xenograft = experiment: HT-29 colon cancer xenograft; assay type: in vivo, mouse; conditions: monotherapy, FIG. 26A
Protocol: Female athymic nu/nu mice, 6-8 weeks of age, were injected subcutaneously on the lateral dorsal surface with 0.4 mL volume of a suspension containing a human tumor cell line in media, diluted 1:1 with MATRIGEL™ (BD Biosciences). The cell lines used in xenograft models, with the cell doses indicated in parenthesis (10^6 cells/mouse), were: human colon carcinoma cell lines DLD-I (5), GEO (5) and HT-29 (5); human breast carcinoma cell lines DU4475 (2), MDA-MB-231 (5), MDA-MB-435 (5), and BT474 (5). When tumors reached approximately 200-300 mm^3, mice were randomized by tumor size and divided into treatment groups. Tumor growth was evaluated approximately twice weekly, with tumor volume calculated as π/6* (Length*Width^2), where Length=longest diameter and Width=diameter perpendicular to Length. Tumor dimensions were measured with calipers. T/C % was calculated as 100*(Final Treatment Tumor Volume/Initial Treatment Tumor Volume)/(Final Control Tumor Volume/Initial Control Tumor Volume).
18F1 was diluted in 0.9% USP saline (Braun) or phosphate buffered saline (PBS) and administered intraperitoneally in a volume of 0.5 mL per mouse. The effect of treatment on tumor growth was analyzed using repeated measures analysis of variance (RM ANOVA), p<0.05 was considered significant.

MDA-MB-231 xenografts = experiment: Immunohistochemistry and TUNEL of MDA-MB-231 xenografts; assay type: in vivo, mouse
Protocol: Paraffin-embedded MDA-MB-231 xenografts were evaluated immunohistochemically for markers of tumor cell proliferation, survival, and apoptosis. Markers of proliferation and survival included Ki-67 (rabbit pAb; Lab Vision Corporation, Fremont, Calif.), phospho-specific p44/42 MAPK (Thr202/Tyr204) (rabbit pAb; Cell Signaling Technology) and phospho-specific Akt (Ser473) (rabbit pAb; Cell Signaling Technology). The EnVision+ System for rabbit antibodies (DAKO Cytomation, Carpenteria, Calif.) was used with 3,3′ diaminobenzidine (DAB) as the chromagen, per kit instructions. After brief counterstaining in Mayer's hematoxylin all sections were dehydrated, cleared and coverslipped using a permanent mounting medium. Tumor apoptosis was assessed by TUNEL assay using ApopTag® Peroxidase In Situ Apoptosis Detection Kit (Chemicon, Temecula, Calif.) per kit instructions. Stained sections were coverslipped with Gelmount (Biomeda, Foster City, Calif.). Positive immunostaining and TUNEL positive […] were analyzed and imaged using an Axioskop light microscope with an Axiocam digital camera (Carl Zeiss, Germany).

huVEGFR-2-AP = huVEGFR-2-AP (Homo sapiens, UniProt P35968); experiment: Plate-bound receptor binding ELISA (Example 2B); conditions: FIG. 32C, 100 ng/well
huVEGFR-2-AP, sequence (P35968 20-764 limits assumed): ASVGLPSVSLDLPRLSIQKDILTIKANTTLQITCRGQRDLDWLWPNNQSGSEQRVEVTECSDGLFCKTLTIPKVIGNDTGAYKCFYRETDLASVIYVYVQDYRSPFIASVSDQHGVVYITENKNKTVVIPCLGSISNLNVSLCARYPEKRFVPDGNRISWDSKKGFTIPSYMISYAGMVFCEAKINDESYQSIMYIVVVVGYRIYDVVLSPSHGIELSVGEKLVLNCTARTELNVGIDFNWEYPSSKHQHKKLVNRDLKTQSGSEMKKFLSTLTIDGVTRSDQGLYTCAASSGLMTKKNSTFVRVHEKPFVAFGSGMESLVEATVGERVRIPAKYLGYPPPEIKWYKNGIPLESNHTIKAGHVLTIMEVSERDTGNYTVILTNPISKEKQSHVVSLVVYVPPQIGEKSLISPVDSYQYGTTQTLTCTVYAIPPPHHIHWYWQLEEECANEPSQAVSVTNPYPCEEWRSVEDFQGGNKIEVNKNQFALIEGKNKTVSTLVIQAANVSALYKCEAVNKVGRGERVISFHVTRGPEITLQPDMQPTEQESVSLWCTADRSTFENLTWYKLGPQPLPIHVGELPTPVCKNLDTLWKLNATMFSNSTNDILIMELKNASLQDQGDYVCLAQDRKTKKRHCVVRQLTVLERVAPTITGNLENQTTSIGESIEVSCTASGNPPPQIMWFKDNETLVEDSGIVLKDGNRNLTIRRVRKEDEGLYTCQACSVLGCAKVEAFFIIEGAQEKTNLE
Protocol: (§1) HuVEGFR-I-Fc, mouse VEGFR-I-AP (hnClone Systems) or huVEGFR-2-AP (ImClone Systems) (100 ng/well) was coated on 96 strip-well plates and blocked with 5% milk/PBS. The binding of 18F1 and other anti-human VEGFR-I antibodies or a rat anti-mouse VEGFR-I antibody, MF1 (ImClone Systems, ref. 18), to plate bound VEGFR-I or VEGFR-2 was evaluated as described for the hybridoma supernatant screening above, except that bound antibody was detected with a goat anti-human kappa-HRP antibody (Bio Source International, Camarillo, Calif.) for 18F1 and anti-human VEGFR-2 antibody ICl 1. or a goat anti-rat IgG-HRP antibody (BioSource International) for MF1.

mouse VEGFR-I-AP = target: T1, mouse VEGFR-I-AP (Mus musculus, UniProt P35969); experiment: Plate-bound receptor binding ELISA (Example 2B); conditions: FIG. 32B, 100 ng/well
T1 sequence (P35969 23-759 limits assumed): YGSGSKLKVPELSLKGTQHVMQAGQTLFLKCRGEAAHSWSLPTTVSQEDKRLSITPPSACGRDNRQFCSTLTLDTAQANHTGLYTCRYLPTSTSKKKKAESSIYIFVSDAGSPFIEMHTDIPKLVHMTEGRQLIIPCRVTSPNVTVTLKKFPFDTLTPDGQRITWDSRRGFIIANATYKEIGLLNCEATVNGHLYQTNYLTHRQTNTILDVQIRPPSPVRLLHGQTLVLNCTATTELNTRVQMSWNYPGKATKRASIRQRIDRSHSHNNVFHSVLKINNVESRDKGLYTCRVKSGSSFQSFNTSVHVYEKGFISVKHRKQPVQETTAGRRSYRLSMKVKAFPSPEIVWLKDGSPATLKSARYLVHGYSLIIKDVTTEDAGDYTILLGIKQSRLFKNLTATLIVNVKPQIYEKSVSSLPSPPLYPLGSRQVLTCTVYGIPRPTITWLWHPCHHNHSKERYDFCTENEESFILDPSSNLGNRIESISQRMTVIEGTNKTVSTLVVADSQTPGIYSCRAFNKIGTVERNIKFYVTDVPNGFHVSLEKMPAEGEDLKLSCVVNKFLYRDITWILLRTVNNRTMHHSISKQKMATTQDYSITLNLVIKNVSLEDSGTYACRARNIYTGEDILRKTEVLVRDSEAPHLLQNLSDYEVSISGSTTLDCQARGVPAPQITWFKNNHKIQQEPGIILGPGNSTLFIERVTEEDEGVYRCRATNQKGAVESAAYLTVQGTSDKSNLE
Protocol: as §1

HuVEGFR-I-Fc = target: T2, HuVEGFR-I-Fc (Homo sapiens, UniProt P17948); experiment: Plate-bound receptor binding ELISA (Example 2B); conditions: FIG. 32A, 100 ng/well
T2 construct: soluble recombinant VEGFR-I Fc (rhuVEGFR-1 Fc) proteins were purchased from (R&D Systems Inc); purchased R&D Systems Inc
T2 sequence (P17948 27-758 limits assumed): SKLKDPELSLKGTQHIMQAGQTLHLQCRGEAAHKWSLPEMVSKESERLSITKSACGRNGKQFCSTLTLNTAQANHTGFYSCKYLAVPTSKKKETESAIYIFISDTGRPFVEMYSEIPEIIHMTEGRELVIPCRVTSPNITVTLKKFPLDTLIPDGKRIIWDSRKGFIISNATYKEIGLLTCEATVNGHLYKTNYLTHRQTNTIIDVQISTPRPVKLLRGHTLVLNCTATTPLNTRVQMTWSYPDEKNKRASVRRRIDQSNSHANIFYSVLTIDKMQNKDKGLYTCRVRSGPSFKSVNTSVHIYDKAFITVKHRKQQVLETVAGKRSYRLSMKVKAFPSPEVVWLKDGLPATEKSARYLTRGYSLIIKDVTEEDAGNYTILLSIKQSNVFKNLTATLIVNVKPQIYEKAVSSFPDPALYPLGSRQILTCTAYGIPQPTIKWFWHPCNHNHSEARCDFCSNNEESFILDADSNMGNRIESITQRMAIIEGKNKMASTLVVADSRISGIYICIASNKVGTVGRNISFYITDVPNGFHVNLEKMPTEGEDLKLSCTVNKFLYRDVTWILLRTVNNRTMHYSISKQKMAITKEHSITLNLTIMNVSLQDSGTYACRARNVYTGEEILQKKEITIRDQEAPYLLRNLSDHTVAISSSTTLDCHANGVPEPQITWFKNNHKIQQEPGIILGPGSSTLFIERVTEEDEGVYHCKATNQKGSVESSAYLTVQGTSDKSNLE
Protocol: as §1

[1] = target: T3, VEGFR-I on PAE-VEGFR-I expressing cells (Homo sapiens, UniProt P17948); experiment: Surface VEGFR-I blocking assay (125I-VEGF); assay type: binding; conditions: porcine aorta endothelial cells, FIG. 9
T3 construct: host or cells: porcine aorta endothelial (PAE) cells
T3 sequence (P17948 27-1338): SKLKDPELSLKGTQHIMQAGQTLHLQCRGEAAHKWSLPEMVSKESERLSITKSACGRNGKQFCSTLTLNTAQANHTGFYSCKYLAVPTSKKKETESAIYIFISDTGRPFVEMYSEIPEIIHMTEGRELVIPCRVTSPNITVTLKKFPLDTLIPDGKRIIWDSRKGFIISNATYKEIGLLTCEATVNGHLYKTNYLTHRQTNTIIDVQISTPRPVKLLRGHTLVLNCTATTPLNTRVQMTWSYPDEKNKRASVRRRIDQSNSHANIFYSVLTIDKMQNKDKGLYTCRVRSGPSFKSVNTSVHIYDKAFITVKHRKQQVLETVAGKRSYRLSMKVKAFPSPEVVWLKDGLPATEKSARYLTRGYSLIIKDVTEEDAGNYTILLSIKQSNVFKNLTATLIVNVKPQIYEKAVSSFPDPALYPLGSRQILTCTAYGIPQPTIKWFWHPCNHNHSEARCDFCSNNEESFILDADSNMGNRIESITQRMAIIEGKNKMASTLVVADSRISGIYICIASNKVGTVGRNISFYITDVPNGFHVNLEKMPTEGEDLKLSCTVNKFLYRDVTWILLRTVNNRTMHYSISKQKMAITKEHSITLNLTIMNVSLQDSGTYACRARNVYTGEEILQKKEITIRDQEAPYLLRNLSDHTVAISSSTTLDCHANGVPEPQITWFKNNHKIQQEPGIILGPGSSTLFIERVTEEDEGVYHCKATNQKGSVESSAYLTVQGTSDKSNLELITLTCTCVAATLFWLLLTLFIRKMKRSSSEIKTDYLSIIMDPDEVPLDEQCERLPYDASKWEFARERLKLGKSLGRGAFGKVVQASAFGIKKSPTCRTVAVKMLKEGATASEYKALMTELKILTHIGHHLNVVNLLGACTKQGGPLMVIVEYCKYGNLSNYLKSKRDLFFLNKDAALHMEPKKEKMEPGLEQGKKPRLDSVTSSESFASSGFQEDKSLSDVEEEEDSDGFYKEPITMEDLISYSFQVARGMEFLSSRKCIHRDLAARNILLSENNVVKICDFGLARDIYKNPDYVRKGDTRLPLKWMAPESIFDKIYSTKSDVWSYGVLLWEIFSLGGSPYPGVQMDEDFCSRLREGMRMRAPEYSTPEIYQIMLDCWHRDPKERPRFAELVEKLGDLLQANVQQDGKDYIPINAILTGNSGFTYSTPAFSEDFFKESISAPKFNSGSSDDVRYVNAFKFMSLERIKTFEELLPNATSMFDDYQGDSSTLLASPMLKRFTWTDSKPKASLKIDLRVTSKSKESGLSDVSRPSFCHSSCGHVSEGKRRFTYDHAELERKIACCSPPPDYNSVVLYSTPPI
Protocol: The binding of ^125I-VEGF to VEGFR-I on cell surface was performed using PAE-VEGFR-I expressing cells. […] Confluent cells were incubated in serum- and growth supplement-free Dulbecco's Modified Eagle Medium (DMEM)ZF-12 medium (Invitrogen, Carlsbad, Calif.) for 24 hours. Cells were rinsed once with ice-cold DMEMZF-12 medium containing 0.025 M HEPES and 1 mgZml bovine serum albumin (BSA). A serial dilution of anti-VEGFR-I antibody 18F1 or cold VEGF at the concentration of a 200-fold molar excess of labeled VEGF was added to each well in the plate and incubated at 4° C. for 1 hour. After wash, ^125I-VEGF was added at the concentration of 2 ngZml and was incubated at 4° C. for 2 hours on a platform shaker. The cells were washed three times with PBS containing 1 mgZml BSA and 0.25 mM CaCl2, and were incubated for 5 minutes in the presence of 1% Triton X-100, 1 mgZml BSA, and 0.16% NaN3 to remove bound VEGF. The soluble content of each well was counted in a gamma counter. The assays were performed in triplicate in at least three independent experiments and the data were analyzed using Prism GraphPad software 3.03.

[2] = after 1 week, 0.5 mg/dose M-W-F
[3] = after 14 days, 20 mg/kg 2x/week

- reactivity with human VEGFR-2 (huVEGFR-2-AP): no cross reactivity
- reactivity with mouse VEGFR-I (mouse VEGFR-I-AP): no cross reactivity
- reactivity with human VEGFR-I (HuVEGFR-I-Fc): specific reactivity
- blocking of 125I-VEGF binding to native VEGFR-I [1]: strong blocking activity
Substance: 18F1: human anti-VEGFR-1 monoclonal antibody clone; VL SEQ ID NO: 16, VH SEQ ID NO: 20 [Clone 18F1]
- antitumor effect against HT-29 colon cancer xenografts (HT-29 xenograft): significant antitumor effect
- Akt phosphorylation (MDA-MB-231 xenografts; [2]): significant decrease
- apoptosis as measured by TUNEL positive events (MDA-MB-231 xenografts; [2]): increase
- activation of MAPK (MDA-MB-231 xenografts; [3]): marked decrease
- marker for proliferating cells (Ki-67) (MDA-MB-231 xenografts; [3]): significantly reduced

Source: patent US8143025B2, “Antibodies against vascular endothelial growth factor receptor-1” (ImClone LLC, priority 2004, dated 2012)
